Test [1] concerns mouse. As to the kind of experiment: Analgesic activity, writhing test (mouse). Format: in vivo. On the procedure:
(§1) The end product of Example 1, i.e. 2-[N-(2-fluoro-6-bromo-phenyl)-N-(thienyl-2-methyl)-amino]-2-imidazoline (A), and [N-2,6-dibromo-phenyl)-N-(thienyl-2-methyl)-amino]-2-imidazoline (B), disclosed in column 2, lines 47-48, of U.S. Pat. No. 3,937,717, were tested for analgesic activity and locomotion-inhibiting activity by the standard test methods described in the following literature references:
Analgesic activity: Ph. Linee, J. Pharmacol. (Paris) 3,4 513-515 (1972). Writhing test.

The test system of test [2] is mouse. As to the kind of experiment: Locomotion-inhibiting activity (mouse). Format: in vivo. The conditions noted are these: sc, read-out: Locomotion inhibition (mouse) ED50 s.c. As to the method:
as §1
Locomotion--inhibiting activity: K. Stockhaus et al., Committee on Problems of Drug Dependence (1970) 6890-6898 National Academy of Sciences.

Where [3] appears, read: po, read-out: Writhing test (mouse) ED50 p.o.
Setting [4] is: sc, read-out: Writhing test (mouse) ED50 s.c.

The values below come from patent US4478844A, “Bradycardiac or analgesic 2-(N-(thienyl-2-methyl)-N-(2-fluoro-6-methyl-phenyl)-amino)-2-imidazolin e and salts thereof” (Boehringer Ingelheim KG, priority 1979, dated 1984).

What is called ED50 is the dose at which the effect has come halfway, by size or by number of responders.

SMILES strings stand for the structures.

Turning to `Fc1cccc(Br)c1N(Cc1cccs1)C1=NCCN1` [A, 2-[N-(2-fluoro-6-bromo-phenyl)-N-(thienyl-2-methyl)-amino]-2-imidazoline], the values for the ED50 in the test on mouse [1] (setting [3]), in the test on mouse [1] (setting [4]) and with mouse [2] were 0.28 mg/kg, 0.12 mg/kg and 0.13 mg/kg, respectively.
Turning to `Brc1cccc(Br)c1N(Cc1cccs1)C1=NCCN1` [B], the ED50 turned out to be 0.6 mg/kg in the test with mouse [1] (setting [3]), 0.3 mg/kg with mouse [1] (setting [4]) and 0.6 mg/kg in the test with mouse [2].
